# According to BindingDB's records for doi:10.1073/pnas.0606956103 (Targegen, 2006):
# Assays:
# Assay in all cases: Determination of PI3K Activity
# Details in all cases: pH 7.4; 22 °C
# [1] = target: Phosphatidylinositol 3-kinase regulatory subunit alpha/4,5-bisphosphate 3-kinase catalytic subunit alpha isoform (Homo sapiens, UniProt P42336)
# [2] = target: Phosphatidylinositol 3-kinase regulatory subunit alpha/4,5-bisphosphate 3-kinase catalytic subunit beta isoform (Homo sapiens, UniProt P42338)
# [3] = target: Phosphatidylinositol 3-kinase regulatory subunit alpha/4,5-bisphosphate 3-kinase catalytic subunit delta isoform (Homo sapiens, UniProt O00329)
# Chain of Phosphatidylinositol 3-kinase regulatory subunit alpha/4,5-bisphosphate 3-kinase catalytic subunit delta isoform (P27986 whole entry, canonical isoform): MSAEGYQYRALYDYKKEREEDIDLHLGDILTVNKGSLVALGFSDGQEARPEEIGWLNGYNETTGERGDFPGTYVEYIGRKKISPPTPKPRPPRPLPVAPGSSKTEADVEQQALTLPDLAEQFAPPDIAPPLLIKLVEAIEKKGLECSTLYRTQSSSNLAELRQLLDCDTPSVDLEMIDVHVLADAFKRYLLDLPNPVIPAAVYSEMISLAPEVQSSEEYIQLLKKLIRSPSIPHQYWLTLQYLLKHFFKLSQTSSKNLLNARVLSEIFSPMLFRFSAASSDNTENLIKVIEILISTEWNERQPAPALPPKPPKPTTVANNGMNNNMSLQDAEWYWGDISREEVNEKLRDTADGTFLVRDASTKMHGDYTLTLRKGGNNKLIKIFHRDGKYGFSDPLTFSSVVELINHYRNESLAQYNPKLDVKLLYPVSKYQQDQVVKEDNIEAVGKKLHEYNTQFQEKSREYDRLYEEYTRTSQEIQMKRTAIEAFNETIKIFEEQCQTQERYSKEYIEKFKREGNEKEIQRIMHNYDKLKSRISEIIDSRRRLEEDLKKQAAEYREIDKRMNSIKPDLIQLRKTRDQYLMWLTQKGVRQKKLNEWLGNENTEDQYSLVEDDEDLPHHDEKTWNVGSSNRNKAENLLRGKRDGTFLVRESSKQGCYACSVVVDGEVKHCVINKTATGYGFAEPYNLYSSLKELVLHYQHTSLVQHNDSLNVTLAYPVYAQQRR
# Chain of Phosphatidylinositol 3-kinase regulatory subunit alpha/4,5-bisphosphate 3-kinase catalytic subunit delta isoform (O00329 whole entry, canonical isoform): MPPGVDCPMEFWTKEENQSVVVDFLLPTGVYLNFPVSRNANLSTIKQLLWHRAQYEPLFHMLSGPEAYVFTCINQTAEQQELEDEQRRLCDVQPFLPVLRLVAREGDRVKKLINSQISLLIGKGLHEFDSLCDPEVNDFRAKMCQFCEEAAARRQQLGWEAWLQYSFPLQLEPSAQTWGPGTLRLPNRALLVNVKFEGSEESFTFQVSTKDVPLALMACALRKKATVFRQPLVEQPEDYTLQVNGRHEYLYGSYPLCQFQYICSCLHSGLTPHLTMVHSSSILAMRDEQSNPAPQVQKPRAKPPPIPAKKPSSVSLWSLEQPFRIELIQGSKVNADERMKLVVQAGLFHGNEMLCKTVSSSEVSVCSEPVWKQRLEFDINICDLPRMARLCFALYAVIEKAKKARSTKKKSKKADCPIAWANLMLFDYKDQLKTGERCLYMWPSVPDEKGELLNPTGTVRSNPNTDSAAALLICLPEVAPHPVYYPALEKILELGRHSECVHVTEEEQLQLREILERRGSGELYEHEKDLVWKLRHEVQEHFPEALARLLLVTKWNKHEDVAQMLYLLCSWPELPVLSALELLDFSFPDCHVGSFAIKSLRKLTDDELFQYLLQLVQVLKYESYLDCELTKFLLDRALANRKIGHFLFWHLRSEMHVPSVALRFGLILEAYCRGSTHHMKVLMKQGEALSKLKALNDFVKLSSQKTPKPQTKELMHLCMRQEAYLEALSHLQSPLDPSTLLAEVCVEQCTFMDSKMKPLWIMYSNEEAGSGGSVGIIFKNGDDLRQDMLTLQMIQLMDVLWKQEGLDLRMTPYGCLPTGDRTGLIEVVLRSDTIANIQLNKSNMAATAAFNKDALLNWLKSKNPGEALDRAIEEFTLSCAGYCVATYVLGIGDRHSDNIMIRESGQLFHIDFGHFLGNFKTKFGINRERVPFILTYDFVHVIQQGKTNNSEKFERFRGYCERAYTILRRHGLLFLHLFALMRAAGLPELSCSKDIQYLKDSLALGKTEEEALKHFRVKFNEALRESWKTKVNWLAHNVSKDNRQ
# Chain of Phosphatidylinositol 3-kinase regulatory subunit alpha/4,5-bisphosphate 3-kinase catalytic subunit alpha isoform (P27986 whole entry, canonical isoform): as the sequence (P27986 whole entry, canonical isoform) above
# Chain of Phosphatidylinositol 3-kinase regulatory subunit alpha/4,5-bisphosphate 3-kinase catalytic subunit alpha isoform (P42336 whole entry, canonical isoform): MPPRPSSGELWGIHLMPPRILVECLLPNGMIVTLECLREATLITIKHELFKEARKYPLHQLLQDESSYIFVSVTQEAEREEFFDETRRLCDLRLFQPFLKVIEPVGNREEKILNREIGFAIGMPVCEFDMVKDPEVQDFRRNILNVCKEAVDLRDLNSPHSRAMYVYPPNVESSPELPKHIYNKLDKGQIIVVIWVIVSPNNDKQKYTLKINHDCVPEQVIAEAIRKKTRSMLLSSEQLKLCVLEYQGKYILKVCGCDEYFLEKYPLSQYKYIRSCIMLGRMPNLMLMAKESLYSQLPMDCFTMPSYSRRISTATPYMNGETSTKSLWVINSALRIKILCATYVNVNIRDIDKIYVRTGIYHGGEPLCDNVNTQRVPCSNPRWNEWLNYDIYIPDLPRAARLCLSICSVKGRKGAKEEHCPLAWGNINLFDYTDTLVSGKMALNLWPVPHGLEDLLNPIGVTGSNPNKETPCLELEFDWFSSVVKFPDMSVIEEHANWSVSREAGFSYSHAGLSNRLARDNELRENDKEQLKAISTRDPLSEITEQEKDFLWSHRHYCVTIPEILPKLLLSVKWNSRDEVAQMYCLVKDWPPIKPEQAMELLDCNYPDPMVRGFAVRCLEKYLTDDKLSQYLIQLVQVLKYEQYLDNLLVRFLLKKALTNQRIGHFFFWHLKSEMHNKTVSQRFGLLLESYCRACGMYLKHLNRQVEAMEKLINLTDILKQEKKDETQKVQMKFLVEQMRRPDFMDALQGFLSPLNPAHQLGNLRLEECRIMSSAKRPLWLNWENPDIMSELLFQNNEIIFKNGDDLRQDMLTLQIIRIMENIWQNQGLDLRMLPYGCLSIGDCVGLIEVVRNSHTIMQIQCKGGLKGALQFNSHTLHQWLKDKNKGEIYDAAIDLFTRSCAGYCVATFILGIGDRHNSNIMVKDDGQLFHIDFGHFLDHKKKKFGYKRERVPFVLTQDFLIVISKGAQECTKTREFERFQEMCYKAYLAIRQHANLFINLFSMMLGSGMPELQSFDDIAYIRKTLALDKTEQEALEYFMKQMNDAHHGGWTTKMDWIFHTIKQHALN
# Chain of Phosphatidylinositol 3-kinase regulatory subunit alpha/4,5-bisphosphate 3-kinase catalytic subunit beta isoform (P27986 whole entry, canonical isoform): as the sequence (P27986 whole entry, canonical isoform) above
# Chain of Phosphatidylinositol 3-kinase regulatory subunit alpha/4,5-bisphosphate 3-kinase catalytic subunit beta isoform (P42338 whole entry, canonical isoform): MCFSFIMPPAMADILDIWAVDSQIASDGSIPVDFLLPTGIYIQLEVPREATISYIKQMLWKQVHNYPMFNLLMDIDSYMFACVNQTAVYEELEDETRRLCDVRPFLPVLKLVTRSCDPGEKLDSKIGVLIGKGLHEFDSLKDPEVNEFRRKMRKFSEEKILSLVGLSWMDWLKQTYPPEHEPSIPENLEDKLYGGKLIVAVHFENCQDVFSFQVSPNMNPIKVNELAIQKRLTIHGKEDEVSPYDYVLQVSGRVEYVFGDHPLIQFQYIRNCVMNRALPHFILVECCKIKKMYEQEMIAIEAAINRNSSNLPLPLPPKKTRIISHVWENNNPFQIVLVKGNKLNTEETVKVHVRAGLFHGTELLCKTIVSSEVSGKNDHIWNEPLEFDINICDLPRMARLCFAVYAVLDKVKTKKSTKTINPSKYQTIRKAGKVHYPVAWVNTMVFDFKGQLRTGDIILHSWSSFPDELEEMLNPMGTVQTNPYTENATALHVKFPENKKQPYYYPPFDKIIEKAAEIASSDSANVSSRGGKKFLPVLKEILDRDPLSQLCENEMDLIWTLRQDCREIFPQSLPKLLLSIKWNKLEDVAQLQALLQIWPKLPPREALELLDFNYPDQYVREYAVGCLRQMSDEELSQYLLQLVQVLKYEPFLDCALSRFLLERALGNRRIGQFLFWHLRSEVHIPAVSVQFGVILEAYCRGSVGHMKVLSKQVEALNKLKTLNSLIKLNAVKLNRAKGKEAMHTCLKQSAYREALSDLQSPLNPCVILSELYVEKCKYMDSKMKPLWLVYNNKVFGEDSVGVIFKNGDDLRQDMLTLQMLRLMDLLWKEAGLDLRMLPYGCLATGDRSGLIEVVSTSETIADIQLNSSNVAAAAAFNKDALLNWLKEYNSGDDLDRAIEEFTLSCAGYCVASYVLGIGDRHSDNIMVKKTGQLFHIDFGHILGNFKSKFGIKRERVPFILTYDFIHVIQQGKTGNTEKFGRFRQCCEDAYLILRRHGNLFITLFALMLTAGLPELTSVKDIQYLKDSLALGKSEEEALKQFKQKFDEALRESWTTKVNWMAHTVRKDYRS
smiles,measurement,setting,value
"Nc1nc(N)c2nc(-c3cccc4[nH]ccc34)cnc2n1 [6-(1H-indol-4-yl)pteridine-2,4-diamine]",IC50,[1],1200 nM
same,IC50,[2],107 nM
same,IC50,[3],64 nM
O=c1cc(N2CCOCC2)oc2c(-c3ccccc3)cccc12,IC50,[3],561 nM
